According to patent US6713506B2, “Tea polyphenol esters and analogs thereof for cancer prevention and treatment” (University of South Florida, priority 2000, dated 2004):

Tests used:
purified calpain I = target: T1, purified calpain I (Homo sapiens, UniProt P07384); experiment: Calpain I activity assay; type: biochemical; details: for inhibition of purified calpain I activity (in words): 10 μM, FIG. 16A
T1 construct: 3 μg purified calpain I (Human Erythrocytes, Calbiochem) is incubated; purchased Calbiochem; host or cells: human erythrocytes (tissue-purified)
T1 sequence (P07384 1-714): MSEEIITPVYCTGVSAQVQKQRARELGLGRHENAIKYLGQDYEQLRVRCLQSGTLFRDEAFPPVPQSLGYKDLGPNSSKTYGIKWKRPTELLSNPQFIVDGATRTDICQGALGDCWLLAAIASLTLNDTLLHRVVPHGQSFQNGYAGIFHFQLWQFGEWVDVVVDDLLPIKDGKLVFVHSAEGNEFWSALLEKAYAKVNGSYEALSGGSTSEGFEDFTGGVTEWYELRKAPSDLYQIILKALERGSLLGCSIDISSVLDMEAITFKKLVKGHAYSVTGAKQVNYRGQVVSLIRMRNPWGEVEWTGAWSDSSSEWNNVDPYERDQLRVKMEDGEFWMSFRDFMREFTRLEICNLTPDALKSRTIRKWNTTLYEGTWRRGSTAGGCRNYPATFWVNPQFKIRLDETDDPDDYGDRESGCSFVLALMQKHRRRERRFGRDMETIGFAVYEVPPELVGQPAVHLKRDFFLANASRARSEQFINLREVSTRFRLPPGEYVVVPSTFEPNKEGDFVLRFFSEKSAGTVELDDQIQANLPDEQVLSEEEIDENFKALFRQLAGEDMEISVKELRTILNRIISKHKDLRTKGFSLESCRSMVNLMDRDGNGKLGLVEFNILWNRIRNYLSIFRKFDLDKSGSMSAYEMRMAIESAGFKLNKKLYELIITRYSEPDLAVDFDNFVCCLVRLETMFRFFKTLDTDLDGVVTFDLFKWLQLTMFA
T1 sequence (P04632 1-268 partner): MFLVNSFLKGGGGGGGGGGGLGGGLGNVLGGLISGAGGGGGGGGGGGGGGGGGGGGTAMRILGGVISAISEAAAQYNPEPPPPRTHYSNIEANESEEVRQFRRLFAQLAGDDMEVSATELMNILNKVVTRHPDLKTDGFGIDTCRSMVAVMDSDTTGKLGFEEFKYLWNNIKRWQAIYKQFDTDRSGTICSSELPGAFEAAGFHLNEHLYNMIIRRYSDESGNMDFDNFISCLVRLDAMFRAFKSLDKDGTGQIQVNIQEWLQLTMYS
Method: FIG. 8. […] A). […] Initially, 0.5 μg of purified 20S proteasome is incubated with 20 μM of a fluorogenic peptide substrate, Suc-Leu-Leu-Val-Tyr-AMC, for 30 min at 37° C. in 100 μl of assay buffer (20 mM Tris-HCl, pH 8.0) with various concentrations of tannic acid. After incubation, the reaction mixture is diluted to 200 μl with the assay buffer, followed by measurement of the hydrolyzed 7-amido-4-methyl-coumarin (AMC) groups using a fluorometer with an excitation filter of 380 nm and an emission filter of 460 nm. B). […] Tannic acid (0.3 μg/ml) and Glucose (180 μg/ml) are used in the proteasome activity assay as described above. C). […] Purified calpain I (3 μg) protein is incubated with 40 μM of a fluorogenic peptide substrate, Suc-Leu-Tyr-AMC, for 30 min at 37° C. in 100 μl of assay buffer (50 mM Tris-HCl, pH 7.5, containing 50 mM NaCl, 1 mM EDTA, 1 mM EGTA, 5 mM β-Mercaptoethanol, 5 mM CaCl2, and 0.1% CHAPS) in the absence (control) or presence of 5 μg/ml of tannic acid or 0.18 μg/ml of calpeptin (calpain inhibitor).

[1] = system: p27, IκB-α, ubiquitinated proteins, Bax in Jurkat T cells; experiment: Western blot of proteasome substrates in Jurkat T cells; type: cell-based, human; details: for levels of p27: intact Jurkat T cells, 1 or 10 μM, 12 h
Method: FIG. 5. Western blot analysis. A, Jurkat T cells are treated with 1 or 10 μM of EGCG or EGC for 12 h, or B, C, 25 μM of EGCG for various times, followed by Western blot assay using specific antibodies to p27, IκB-α, ubiquitin or actin, as indicated. MWs of IκB-α and actin are 40 and 43 kDa, respectively. The band of 56 kDa, indicated by an arrow in (B), is an ubiquitinated or phosphorylated form of IκB-α. The bands indicated in (C) are ubiquitin-containing proteins. D, LNCaP cells are treated with 1 or 10 μM of EGCG for 12 h. Western bot is performed as described above. E, F, Jurkat T cells are pretreated with 10 μg/ml cycloheximide for 2 hr, followed by co-incubation with 1 or 10 μM of EGCG for 8 or 12 hr as indicated. The p70 is a putative ubiquitinated p27-containing complex (An et al., 1998, Cell Death Differ 5: 1062-75).
FIG. 11. Western blot assay. Western blot assay is performed using specific antibodies to p27^Kip, Bax, poly(ADP-ribose) polymerase (PARP), or actin. Jurkat T cells are treated with 50 μg/ml of tannic acid for 4, 12 or 24 h. Cells are harvested and lysated using the whole lysis buffer (50 mM Tris-HCl, pH 8.0, 5 mM EDTA, 150 mM NaCl, 0.5% NP-40, 0.5 mM PMSF, and 0.5 mM DTT). Cell lysates (70 μg) are separated on a sodium dodecyl sulfate-polyacrylamide gel electrophoresis (SDS-PAGE), followed by Western blot analysis.
Western blot analysis—Western blot assay is performed as described previously (An et al., (1998) Cell Death Differ 5(12), 1062-75) using specific antibodies to p27^Kip (monoclonal; Pharmingen), IκB-α (polyclonal; Santa Cruz), ubiquitin (polyclonal; Sigma) or actin (polyclonal; Santa Cruz). In brief, Jurkat T or LNCaP cells are treated with EGCG or EGC in dose-response or time-dependent manner. Cells are harvested and lysated using the whole lysis buffer. Cell lysates (70 μg) are separated by a sodium dodecyl sulfate-polyacrylamide gel electrophoresis (SDS-PAGE) and then, electrophoretically transferred to a nitrocellulose membrane. Immunocomplexes are detected using the ECL detection reagents kit (Amersham, Piscataway, N.J.).

[2] = Jurkat T cells, 25 μM EGCG, various times
[3] = cycloheximide-pretreated Jurkat T cells, 10 μM

SMILES	inhibition of purified calpain I activity (in words) (purified calpain I)	levels of p27 [1]	inhibition of purified calpain activity (in words) (purified calpain I; FIG. 3B: EGCG 10 μM, calpeptin 1 μM)	levels of IκB-α [1, 2]	levels of ubiquitinated proteins [1, 2]	levels of IκB protein [1, 3]	levels of p27 protein [1, 3]	level of p70 (putative ubiquitinated p27-containing protein) ([1]; cycloheximide-pretreated Jurkat T cells, co-incubation)	induction of IκB expression compared with LLnV ([1]; cycloheximide-pretreated Jurkat T cells, same concentration (10 μM))	inhibition of calpain activity (in words) (purified calpain I; tannic acid 5 μg/ml)	p27Kip and Bax levels ([1]; Jurkat T cells, tannic acid 50 μg/ml, 4, 12 or 24 h)
Oc1cc(O)c2c(c1)O[C@H](c1cc(O)c(O)c(O)c1)[C@H](O)C2 [EGC, (−)-epigallocatechin]	Neither EGCG nor EGC at 10 μM inhibits	does not	–	–	–	–	–	–	–	–	–
O=C(O[C@@H]1Cc2c(O)cc(O)cc2O[C@@H]1c1cc(O)c(O)c(O)c1)c1cc(O)c(O)c(O)c1 [EGCG, (−)-epigallocatechin-3-gallate]	Neither EGCG nor EGC at 10 μM inhibits	greatly increases	but not EGCG, is able to inhibit	increases	increases	increases	dramatically increased	increase	even greater than that of the proteasome inhibitor LLnV	–	–
O=C(OC[C@H]1O[C@@H](OC(=O)c2cc(O)c(O)c(OC(=O)c3cc(O)c(O)c(O)c3)c2)[C@H](OC(=O)c2cc(O)c(O)c(OC(=O)c3cc(O)c(O)c(O)c3)c2)[C@@H](OC(=O)c2cc(O)c(O)c(OC(=O)c3cc(O)c(O)c(O)c3)c2)[C@@H]1OC(=O)c1cc(O)c(O)c(OC(=O)c2cc(O)c(O)c(O)c2)c1)c1cc(O)c(O)c(OC(=O)c2cc(O)c(O)c(O)c2)c1 [tannic acid]	–	–	–	–	–	–	–	–	–	does not inhibit	induction
